According to US20100215632A1, “BIOMARKERS OF SIRTUIN ACTIVITY AND METHODS OF USE THEREOF” (Sirtris Pharmaceuticals, Inc., priority 2007, published 2010):

Key:
FGF21 = FGF21 expression in liver of diet-induced obesity mice (microarray); type: in vivo, mouse; settings: 3 day liver, oral once per day; resveratrol 1000 mg/kg, Compound 1 100 mg/kg
Method: (§1) As with Example 2, the diet-induced obesity (D10) model was used. 51 C57BL/6 mice are started on a 60% kcal high fat diet. Mice are weighed once a week for approximately 7 weeks on the high fat diet until the average body weight of the D10 mice is 40 grams. The study is divided into 3 groups of […] mice per group with mean average body weight/cage. Animals are dosed orally once per day as follows: Resveratrol at 1000 mg/kg in 2% HPMC/0.2% DOSS, Compound 1 at 100 mg/kg in 2% HPMC/0.2% DOSS and vehicle control animals 2% HPMC/0.2% DOSS. Concentration of compound is adjusted to proper dose according to the mean weight for each group weekly. Mice are typically dosed in the a.m. and are only dosed in the p.m. on days following a 16 hour fast. On day 3 of dosing, liver tissue is collected from the mice 1 hour post dose.
The liver is isolated as in Example 2. Total RNA from the liver sample is extracted with standard techniques (e.g. PureLink Micro-to-Midi Total RNA Purification System, Invitrogen cat. #12183-018).
Expression of multiple genes was determine by microarray as in Example 4.

liver = assay: Overall pattern of change in gene expression in 3 day liver of diet-induced obesity mice (gene chip); type: in vivo, mouse; settings: 1000 mg/kg oral once per day
From the text: A mouse model of diet induced obesity was used to identify sirtuin biomarkers in mice following dosing with two chemically unrelated sirtuin activators. Obesity and type II diabetes are being intensively studied in animal models, particularly the mouse. One such model is commonly referred to as the diet-induced obesity (DIO) model. Typically, C57BL/6 males are fed a high fat diet for 8 to 12 weeks and, as a result, become obese, mildly to moderately hyperglycemic, and glucose intolerant. These mice are then used to study the genetic and physiological mechanisms of obesity and type II diabetes.
as §1, with “51” for “As with Example 2, the diet-induced obesity (D10) model was used. 51”, “DIO” for “D10”, “Each group is split up into 3 sub-groups for a 3, 16 and 42” for “On”, “collection time point.” for “3 of dosing, liver tissue is collected from the mice 1 hour post dose.”
Once dosing starts data collections are as follow. Day 3: collect tissues, blood and glucose from 6 mice from each group 1 hour post dose. Also take fed glucose from remaining groups. Day 13: Intraperitoneal glucose tolerance test (IPGTT). Day 16: collect tissues, blood and glucose from 6 mice from each group 1 hour post dose. Also take fed glucose from remaining groups. Day 28: Fasted glucose. […]
Total RNA isolated from either Example 2 above (mouse tissues following in vivo treatment with either Compound 1 or resveratrol) or Example 3 above (human WBC following ex vivo treatment with either Compound 2 or resveratrol) was analyzed using an Affymetrix GeneChip specific to either the mouse or human genome. […]

SMILES	FGF21 mRNA levels versus control mice (FGF21)	activity of PGC1a and PPAR family members (liver)	activity of hepatic transcription factors involved in glucose homeostasis and the stress response pathway (liver)	inflammatory signaling (pattern of gene expression) (liver)
O=C(Nc1ccccc1-c1cn2c(CN3CCNCC3)csc2n1)c1cnc2ccccc2n1 [Compound 1]	markedly higher			
Oc1ccc(C=Cc2cc(O)cc(O)c2)cc1 [resveratrol, 3,5,4′-trihydroxystilbene]	markedly higher	increased activity of PGC1a and PPAR family members	increased activity of hepatic transcription factors	decreased inflammatory signaling
